Measured values reported in the supplement of paper PMC10307832.

Experiments:
Experiment in all cases: relative viability (nuclei count vs DMSO), 5 days (fraction); higher = more cells survive
A-427 = system: A-427
Outline: (§1)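 Lung cancer cell lines were seeded in 1536-well plates and dosed by pin tool the next day, with either a single drug or a fixed anchor-drug dose combined with five library-drug doses (not always all listed) spaced in √10 steps. Five days later, one step fixed the cells and stained their nuclei (final 0.05% Triton X-100, 1% formaldehyde, 1 ug/ml Hoechst), and nuclei were counted on 4× images. Relative viability is the nuclei count in treated wells divided by the count in vehicle wells, and each value is the median of duplicate plates.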

COR-L 105 = system: COR-L 105
Outline: as §1

ChaGo-K-1 = system: ChaGo-K-1
Outline: as §1

EKVX = system: EKVX
Outline: as §1

EMC-BAC-2 = system: EMC-BAC-2
Outline: as §1

H3255 = system: H3255
Outline: as §1

HCC-366 = system: HCC-366
Outline: as §1

LK-2 = system: LK-2
Outline: as §1

LOU-NH91 = system: LOU-NH91
Outline: as §1

NCI-H1563 = system: NCI-H1563
Outline: as §1

NCI-H1666 = system: NCI-H1666
Outline: as §1

NCI-H1734 = system: NCI-H1734
Outline: as §1

NCI-H1755 = system: NCI-H1755
Outline: as §1

NCI-H1792 = system: NCI-H1792
Outline: as §1

NCI-H1944 = system: NCI-H1944
Outline: as §1

NCI-H1975 = system: NCI-H1975
Outline: as §1

NCI-H2170 = system: NCI-H2170
Outline: as §1

NCI-H23 = system: NCI-H23
Outline: as §1

NCI-H441 = system: NCI-H441
Outline: as §1

NCI-H520 = system: NCI-H520
Outline: as §1

NCI-H596 = system: NCI-H596
Outline: as §1

PC-3 [JPC-3] = system: PC-3 [JPC-3]
Outline: as §1

SK-MES-1 = system: SK-MES-1
Outline: as §1

SW 900 = system: SW 900
Outline: as §1

## COc1cc(N2CCC(C(N)=O)CC2)ccc1Nc1nc(N)c(Cl)c(Nc2ccccc2S(=O)(=O)C(C)C)n1 [HG-5-88-01] + Cc1nc(Nc2ncc(C(=O)Nc3c(C)cccc3Cl)s2)cc(N2CCN(CCO)CC2)n1 [Dasatinib] (partner 0.075 µM)
A-427; first compound 0.04 µM
  relative viability: 0.77
A-427; first compound 0.1265 µM
  relative viability: 0.686
A-427; first compound 0.4 µM
  relative viability: 0.676
A-427; first compound 1.265 µM
  relative viability: 0.746
A-427; first compound 4 µM
  relative viability: 0.431
COR-L 105; first compound 0.04 µM
  relative viability: 0.305
COR-L 105; first compound 0.1265 µM
  relative viability: 0.314
COR-L 105; first compound 0.4 µM
  relative viability: 0.254
COR-L 105; first compound 1.265 µM
  relative viability: 0.203
COR-L 105; first compound 4 µM
  relative viability: 0.19
ChaGo-K-1; first compound 0.04 µM
  relative viability: 0.776
ChaGo-K-1; first compound 0.1265 µM
  relative viability: 0.63
ChaGo-K-1; first compound 0.4 µM
  relative viability: 0.509
ChaGo-K-1; first compound 1.265 µM
  relative viability: 0.57
ChaGo-K-1; first compound 4 µM
  relative viability: 0.401
EKVX; first compound 0.04 µM
  relative viability: 0.479
EKVX; first compound 0.1265 µM
  relative viability: 0.563
EKVX; first compound 0.4 µM
  relative viability: 0.435
EKVX; first compound 4 µM
  relative viability: 0.273
EMC-BAC-2; first compound 0.04 µM
  relative viability: 0.31
EMC-BAC-2; first compound 0.1265 µM
  relative viability: 0.343
EMC-BAC-2; first compound 0.4 µM
  relative viability: 0.217
EMC-BAC-2; first compound 1.265 µM
  relative viability: 0.243
EMC-BAC-2; first compound 4 µM
  relative viability: 0.218
H3255; first compound 0.04 µM
  relative viability: 0.338
H3255; first compound 0.1265 µM
  relative viability: 0.411
H3255; first compound 0.4 µM
  relative viability: 0.355
H3255; first compound 4 µM
  relative viability: 0.2
HCC-366; first compound 0.04 µM
  relative viability: 0.65
HCC-366; first compound 0.1265 µM
  relative viability: 0.677
HCC-366; first compound 0.4 µM
  relative viability: 0.514
HCC-366; first compound 1.265 µM
  relative viability: 0.691
HCC-366; first compound 4 µM
  relative viability: 0.3
LK-2; first compound 0.04 µM
  relative viability: 0.334
LK-2; first compound 0.1265 µM
  relative viability: 0.235
LK-2; first compound 0.4 µM
  relative viability: 0.173
LK-2; first compound 1.265 µM
  relative viability: 0.247
LK-2; first compound 4 µM
  relative viability: 0.184
LOU-NH91; first compound 0.04 µM
  relative viability: 0.57
LOU-NH91; first compound 0.1265 µM
  relative viability: 0.524
LOU-NH91; first compound 0.4 µM
  relative viability: 0.493
LOU-NH91; first compound 1.265 µM
  relative viability: 0.321
LOU-NH91; first compound 4 µM
  relative viability: 0.243
NCI-H1563; first compound 0.04 µM
  relative viability: 0.453
NCI-H1563; first compound 0.1265 µM
  relative viability: 0.445
NCI-H1563; first compound 0.4 µM
  relative viability: 0.436
NCI-H1563; first compound 1.265 µM
  relative viability: 0.367
NCI-H1563; first compound 4 µM
  relative viability: 0.381
NCI-H1666; first compound 0.04 µM
  relative viability: 0.873
NCI-H1666; first compound 0.1265 µM
  relative viability: 0.837
NCI-H1666; first compound 0.4 µM
  relative viability: 0.643
NCI-H1666; first compound 1.265 µM
  relative viability: 0.539
NCI-H1666; first compound 4 µM
  relative viability: 0.389
NCI-H1734; first compound 0.04 µM
  relative viability: 0.412
NCI-H1734; first compound 0.1265 µM
  relative viability: 0.432
NCI-H1734; first compound 0.4 µM
  relative viability: 0.326
NCI-H1734; first compound 1.265 µM
  relative viability: 0.358
NCI-H1734; first compound 4 µM
  relative viability: 0.284
NCI-H1755; first compound 0.04 µM
  relative viability: 0.459
NCI-H1755; first compound 0.1265 µM
  relative viability: 0.514
NCI-H1755; first compound 0.4 µM
  relative viability: 0.369
NCI-H1755; first compound 1.265 µM
  relative viability: 0.29
NCI-H1755; first compound 4 µM
  relative viability: 0.15
NCI-H1792; first compound 0.04 µM
  relative viability: 0.959
NCI-H1792; first compound 0.1265 µM
  relative viability: 0.693
NCI-H1792; first compound 0.4 µM
  relative viability: 0.78
NCI-H1792; first compound 4 µM
  relative viability: 0.525
NCI-H1944; first compound 0.04 µM
  relative viability: 0.205
NCI-H1944; first compound 0.1265 µM
  relative viability: 0.201
NCI-H1944; first compound 0.4 µM
  relative viability: 0.233
NCI-H1944; first compound 1.265 µM
  relative viability: 0.191
NCI-H1944; first compound 4 µM
  relative viability: 0.188
NCI-H1975; first compound 0.04 µM
  relative viability: 0.358
NCI-H1975; first compound 0.1265 µM
  relative viability: 0.352
NCI-H1975; first compound 0.4 µM
  relative viability: 0.284
NCI-H1975; first compound 1.265 µM
  relative viability: 0.217
NCI-H1975; first compound 4 µM
  relative viability: 0.145
NCI-H2170; first compound 0.04 µM
  relative viability: 0.502
NCI-H2170; first compound 0.1265 µM
  relative viability: 0.441
NCI-H2170; first compound 0.4 µM
  relative viability: 0.498
NCI-H2170; first compound 1.265 µM
  relative viability: 0.165
NCI-H2170; first compound 4 µM
  relative viability: 0.269
NCI-H23; first compound 0.04 µM
  relative viability: 0.703
NCI-H23; first compound 0.1265 µM
  relative viability: 0.84
NCI-H23; first compound 0.4 µM
  relative viability: 0.51
NCI-H23; first compound 1.265 µM
  relative viability: 0.588
NCI-H23; first compound 4 µM
  relative viability: 0.265
NCI-H441; first compound 0.04 µM
  relative viability: 0.601
NCI-H441; first compound 0.1265 µM
  relative viability: 0.625
NCI-H441; first compound 0.4 µM
  relative viability: 0.31
NCI-H441; first compound 1.265 µM
  relative viability: 0.314
NCI-H441; first compound 4 µM
  relative viability: 0.231
NCI-H520; first compound 0.04 µM
  relative viability: 0.201
NCI-H520; first compound 0.1265 µM
  relative viability: 0.176
NCI-H520; first compound 0.4 µM
  relative viability: 0.184
NCI-H520; first compound 1.265 µM
  relative viability: 0.162
NCI-H520; first compound 4 µM
  relative viability: 0.2
NCI-H596; first compound 0.04 µM
  relative viability: 0.6
NCI-H596; first compound 0.1265 µM
  relative viability: 0.494
NCI-H596; first compound 0.4 µM
  relative viability: 0.544
NCI-H596; first compound 1.265 µM
  relative viability: 0.416
NCI-H596; first compound 4 µM
  relative viability: 0.288
PC-3 [JPC-3]; first compound 0.04 µM
  relative viability: 1.03
PC-3 [JPC-3]; first compound 0.1265 µM
  relative viability: 0.982
PC-3 [JPC-3]; first compound 0.4 µM
  relative viability: 0.902
PC-3 [JPC-3]; first compound 1.265 µM
  relative viability: 0.936
PC-3 [JPC-3]; first compound 4 µM
  relative viability: 0.814
SK-MES-1; first compound 0.04 µM
  relative viability: 0.335
SK-MES-1; first compound 0.1265 µM
  relative viability: 0.304
SK-MES-1; first compound 0.4 µM
  relative viability: 0.124
SK-MES-1; first compound 1.265 µM
  relative viability: 0.112
SK-MES-1; first compound 4 µM
  relative viability: 0.155
SW 900; first compound 0.04 µM
  relative viability: 0.848
SW 900; first compound 0.1265 µM
  relative viability: 0.548
SW 900; first compound 0.4 µM
  relative viability: 0.391
SW 900; first compound 1.265 µM
  relative viability: 0.578
SW 900; first compound 4 µM
  relative viability: 0.17
